Assay results from patent US20160017206A1, “METHODS FOR IMMEDIATE SOURING CONTROL IN GASES OR FLUIDS PRODUCED FROM SULFIDOGENIC RESERVOIR SYSTEMS” (THE REGENTS OF THE UNIVERSITY OF CALIFORNIA, priority 2013, published 2016).

How the values were obtained:
Type in all cases: cell-based
A. suillum = test: Fe(II) oxidation by A. suillum in anoxic culture with nitrate as electron acceptor; conditions: 10 mM Fe(II) as FeCl2, 10 mM acetate as cosubstrate, within 7 days
Method: A. suillum readily oxidized (10 mM) Fe(II) in the form of FeCl2 with nitrate as the electron acceptor under strict anaerobic conditions (FIG. 8). With 10 mM acetate as a cosubstrate, more than 70% of the added iron was oxidized within 7 days. No Fe(II) was oxidized in the absence of cells or if the nitrate was omitted (data not shown). Fe(II) oxidation was initiated after complete mineralization of acetate to CO2, and growth was not associated with this metabolism.
When acetate was added as an additional carbon and energy source, cell density increased concomitant with acetate oxidation. Fe(II) oxidation occurred after acetate had been depleted and the culture had reached stationary phase (FIG. 8).

[1] = test system: marine sediment slurry microcosms; test: Sulfide inhibition in marine sediment slurry microcosms; conditions: chlorate added with Dechloromarinus strain NSS, incubation over 250 hours
Source text: In the absence of chlorate and Dechloromarinus strain NSS sulfide is readily produced.

Desulfovibrio vulgaris = test: Inhibition of sulfidogenesis (sulfate reduction to sulfide) by D. vulgaris cultures
Method: Twelve tubes of basal anaerobic medium containing 15 mM lactate and 15 mM sulfate were inoculated with an active culture of D. vulgaris and incubated for 6 hours at 30° C., until a visible increase in optical density was observed. After six hours, the tubes were further inoculated with A. suillum and 15 mM chlorate prior to incubation overnight at 30° C., as outlined in Table 2.

Compound | added iron oxidized (A. suillum) | sulfide production in marine sediment slurry microcosms (FIG. 12) [1] | sulfide production by D. vulgaris relative to control cells incubated without chlorate (Desulfovibrio vulgaris; 15 mM chlorate alone, 24 hours, lactate as electron donor) [%] | sulfide production by D. vulgaris relative to control cells incubated in the absence of A. suillum and chlorate (Desulfovibrio vulgaris; 15 mM chlorate together with A. suillum, 24-hour incubation) [%] | antimicrobial activity against D. vulgaris (Desulfovibrio vulgaris; relatively low concentrations (15 mM)) | time course of sulfidogenesis by D. vulgaris (FIG. 14) (Desulfovibrio vulgaris; treated with A. suillum (PS) and chlorate at 48 hours, relative to untreated control)
[Cl][Fe][Cl] [FeCl2, Ferrous chloride] | more than 70% |  |  |  |  | 
[O-][Cl+2]([O-])O [chlorate] |  | sulfide inhibition | 49 | 17 | has antimicrobial activity against D. vulgaris | immediate inhibition of sulfide production and removal of sulfide from the medium
